# Data published in patent publication US8822414B2, “Heterocyclic compounds suitable for the treatment of dyslipidemia” (Cadila Healthcare Limited, priority 2010, dated 2014).
# Target: pro-protein convertase of the subtype nine binding to recombinant LDLR-AB domain (Homo sapiens, UniProt Q8NBP7)
# Assay: in vitro quantitative solid phase binding assay (ELISA) of the subtype nine pro-protein convertase to immobilized LDLR
# Settings: for inhibition at 5 µM: Concentration 5 μM
# Procedure: The in vitro binding assay described hereinafter is a quantitative solid phase binding assay for determining the efficacy of the compounds. Plates were pre-coated with a recombinant LDLR-AB domain, which binds to the gene pro-protein convertase of the subtype nine. Test compound at different concentrations was added to the subtype gene and added to LDLR immobilized on the wells. The amount of bound gene is measured by binding it with biotinylated anti-His-tag monoclonal antibody, followed by binding with horseradish peroxidase conjugated streptavidin substrate. The color was quantified by ELISA reader at […] which reflects the relative amount of “the gene” that binds to LDLR in presence and absence of the inhibitor. EC50 values were calculated by nonlinear regression analysis using graph pad prism software. Each concentration point represents values in duplicates.
# Chain of pro-protein convertase of the subtype nine binding to recombinant LDLR-AB domain (Q8NBP7 153-692): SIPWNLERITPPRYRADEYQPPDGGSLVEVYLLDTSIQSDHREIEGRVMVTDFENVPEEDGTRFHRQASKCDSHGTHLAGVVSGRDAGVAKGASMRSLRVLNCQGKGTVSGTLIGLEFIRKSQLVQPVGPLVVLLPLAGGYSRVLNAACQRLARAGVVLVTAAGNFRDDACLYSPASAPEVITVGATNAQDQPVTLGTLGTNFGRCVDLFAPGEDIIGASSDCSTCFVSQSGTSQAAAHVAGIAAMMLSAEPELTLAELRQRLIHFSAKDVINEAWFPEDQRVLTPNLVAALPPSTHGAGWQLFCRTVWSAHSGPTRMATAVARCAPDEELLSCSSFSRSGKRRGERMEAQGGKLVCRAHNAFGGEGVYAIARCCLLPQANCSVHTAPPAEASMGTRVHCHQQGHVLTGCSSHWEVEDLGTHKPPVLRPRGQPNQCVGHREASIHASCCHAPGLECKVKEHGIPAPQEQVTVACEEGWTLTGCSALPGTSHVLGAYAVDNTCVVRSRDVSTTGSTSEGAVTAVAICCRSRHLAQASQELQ
# Chain of pro-protein convertase of the subtype nine binding to recombinant LDLR-AB domain (Q8NBP7 31-152 partner limits assumed): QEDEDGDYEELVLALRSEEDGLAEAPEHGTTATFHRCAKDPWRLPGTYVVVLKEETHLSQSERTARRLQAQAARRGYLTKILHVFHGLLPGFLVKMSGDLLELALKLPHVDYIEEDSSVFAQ
Compound,inhibition at 1 µM (Concentration 1 μM) [%],inhibition at 10 µM (Concentration 10 μM) [%],inhibition at 100 µM (Concentration 100 μM) [%],inhibition at 5 µM [%],% Inhibition (Concentration 1 μM) [%],% Inhibition (Concentration 10 μM) [%],% Inhibition (Concentration 100 μM) [%]
"O=C(COc1ccc(C(Cc2ccncc2)=NOCc2ccc(C(F)(F)F)cc2)cc1)NCC1CCOCC1 [Example 13, 2-(4-(2-(pyridin-4-yl)-1-(((4-(trifluoromethyl)benzyl)oxy)imino)ethyl)phenoxy)-N-((tetrahydro-2H-pyran-4-yl)methyl)acetamide]",22,32,48,,,,
"Cc1cc(C(Cc2ccsc2)=NOCc2ccc(C(F)(F)F)cc2)ccc1OCC(=O)NCC1CCOCC1 [Example 16, 2-(2-methyl-4-(2-(thiophen-3-yl)-1-(((4-(trifluoromethyl)benzyl)oxy)imino)ethyl)phenoxy)-N-((tetrahydro-2H-pyran-4-yl)methyl)acetamide]",10,35,61,21,,,
"CC(=NOCc1ccc(C(F)(F)F)cc1)c1ccc(NCC(=O)NCC2CCOCC2)nc1 [Example 4, N-((tetrahydro-2H-pyran-4-yl)methyl)-2-((5-(1-(((4-(trifluoromethyl)benzyl)oxy)imino)ethyl)pyridin-2-yl)amino)acetamide]",34,39,51,,,,
Cc1cc(C(Cc2ccccc2)=NOCc2ccc(Cl)cc2)ccc1OCC(=O)NCC1CCOCC1 [Example 36],,,,,6,9,36
"O=C(COc1ccc2c(c1)CCCC2=NOCc1ccc(C(F)(F)F)cc1)NCC1CCOCC1 [Example 48, N-((tetrahydro-2H-pyran-4-yl)methyl)-2-((5-(((4-(trifluoromethyl)benzyl)oxy)imino)-5,6,7,8-tetrahydronaphthalen-2-yl)oxy)acetamide]",17,42,64,,,,
"CCC(=NOCc1ccc(C)cc1)c1ccc(OCC(=O)NCC2CCOCC2)nc1 [Example 25, 2-((5-(1-(((4-methylbenzyl)oxy)imino)propyl)pyridin-2-yl)oxy)-N-((tetrahydro-2H-pyran-4-yl)methyl)acetamide]",28,34,50,,,,
"CCC(=NOCc1ccc(C(F)(F)F)cc1)c1ccc(NCC(=O)NCC2CCOCC2)cc1 [Example 5, N-((tetrahydro-2H-pyran-4-yl)methyl)-2-((4-(1-(((4-(trifluoromethyl)benzyl)oxy)imino)propyl)phenyl)amino)acetamide]",34,40,50,,,,
"CCC(=NOCc1ccc(C#N)cc1)c1ccc(OCC(=O)NCC2CCOCC2)nc1 [Example 28, 2-((5-(1-(((4-cyanobenzyl)oxy)imino)propyl)pyridin-2-yl)oxy)-N-((tetrahydro-2H-pyran-4-yl)methyl)acetamide]",,,23,,,,
"CCC(=NOCc1ccc(OC)cc1)c1ccc(OCC(=O)NCC2CCOCC2)nc1 [Example 26, 2-((5-(1-(((4-methoxybenzyl)oxy)imino)propyl)pyridin-2-yl)oxy)-N-((tetrahydro-2H-pyran-4-yl)methyl)acetamide]",45,45,52,,,,
"COc1ccc(CON=C(Cc2ccccc2)c2ccc(OCC(=O)NCC3CCOCC3)cc2)cc1 [Example 41, 2-(4-(1-(((4-methoxybenzyl)oxy)imino)-2-phenylethyl)phenoxy)-N-((tetrahydro-2H-pyran-4-yl)methyl)acetamide]",10,,19,,,,
"O=C(COc1ccc(C(Cc2ccccc2)=NOCc2ccc(Cl)cc2)cc1)NCC1CCOCC1 [Example 37, 2-(4-(1-(((4-chlorobenzyl)oxy)imino)-2-phenylethyl)phenoxy)-N-((tetrahydro-2H-pyran-4-yl)methyl)acetamide]",20,26,28,,,,
"O=C(COc1ccc(C(CN2CCSCC2)=NOCc2ccc(C(F)(F)F)cc2)cc1)NCC1CCOCC1 [Example 15, N-((tetrahydro-2H-pyran-4-yl)methyl)-2-(4-(2-thiomorpholino-1-(((4-(trifluoromethyl)benzyl)oxy)imino)ethyl)phenoxy)acetamide]",25,37,39,,,,

# Second part, the compound after the results:
inhibition at 1 µM (Concentration 1 μM) [%],inhibition at 10 µM (Concentration 10 μM) [%],inhibition at 100 µM (Concentration 100 μM) [%],inhibition at 5 µM [%],% Inhibition (Concentration 1 μM) [%],% Inhibition (Concentration 10 μM) [%],% Inhibition (Concentration 100 μM) [%],Compound
,15,27,,,,,"O=C(COc1ccc(C(Cc2ccccc2)=NOCc2ccccn2)cc1)NCC1CCOCC1 [Example 43, 2-(4-(2-phenyl-1-((pyridin-2-ylmethoxy)imino)ethyl)phenoxy)-N-((tetrahydro-2H-pyran-4-yl)methyl)acetamide]"
,,15,,,,,"CC(=NOCc1ccc(C#N)cc1)c1ccc(OCC(=O)NCC2CCOCC2)nc1 [Example 21, 2-((5-(1-(((4-cyanobenzyl)oxy)imino)ethyl)pyridin-2-yl)oxy)-N-((tetrahydro-2H-pyran-4-yl)methyl)acetamide]"
,7,11,,,,,"O=C(COc1ccc2c(c1)CCCC2=NOCc1ccc(Cl)cc1)NCC1CCOCC1 [Example 49, 2-((5-(((4-chlorobenzyl)oxy)imino)-5,6,7,8-tetrahydronaphthalen-2-yl)oxy)-N-((tetrahydro-2H-pyran-4-yl)methyl)acetamide]"
22,13,25,,,,,"O=C(COc1ccc(C(Cc2ccccc2)=NOCc2ccc(F)cc2)cc1)NCC1CCOCC1 [Example 35, 2-(4-(1-(((4-fluorobenzyl)oxy)imino)-2-phenylethyl)phenoxy)-N-((tetrahydro-2H-pyran-4-yl)methyl)acetamide]"
,19,38,,,,,"Cc1cc(C(Cc2ccccc2)=NOCc2ccc(OC(F)(F)F)cc2)ccc1OCC(=O)NCC1CCOCC1 [Example 38, 2-(2-methyl-4-(2-phenyl-1-(((4-(trifluoromethoxy)benzyl)oxy)imino)ethyl)phenoxy)-N-((tetrahydro-2H-pyran-4-yl)methyl)acetamide]"
,,36,,,,,"COCC(=NOCc1ccc(C(F)(F)F)cc1)c1ccc(OCC(=O)NCC2CCOCC2)cc1 [Example 30, 2-(4-(2-methoxy-1-(((4-(trifluoromethyl)benzyl)oxy)imino)ethyl)phenoxy)-N-((tetrahydro-2H-pyran-4-yl)methyl)acetamide]"
,9,51,,,,,"CCC(=NOCc1ccc(S(C)(=O)=O)cc1)c1ccc(OCC(=O)NCC2CCOCC2)cc1 [Example 42, 2-(4-(1-(((4-(methylsulfonyl)benzyl)oxy)imino)propyl)phenoxy)-N-((tetrahydro-2H-pyran-4-yl)methyl)acetamide]"
3,35,51,18,,,,"Cc1cc(C(Cc2ccccc2)=NOCc2ccc(C(F)(F)F)cc2)ccc1OCC(=O)NCC1CCOCC1 [Example 10, 2-(2-methyl-4-(2-phenyl-1-(((4-(trifluoromethyl)benzyl)oxy)imino)ethyl)phenoxy)-N-((tetrahydro-2H-pyran-4-yl)methyl)acetamide]"
7,13,32,,,,,"Cc1cc(C(Cc2ccccc2)=NOCc2ccc(F)cc2)ccc1OCC(=O)NCC1CCOCC1 [Example 34, 2-(4-(1-(((4-fluorobenzyl)oxy)imino)-2-phenylethyl)-2-methylphenoxy)-N-((tetrahydro-2H-pyran-4-yl)methyl)acetamide]"
13,19,44,,,,,"O=C(COc1ccc(C=NOCc2ccc(C(F)(F)F)cc2)cc1)NCC1CCOCC1 [Example 17, N-((tetrahydro-2H-pyran-4-yl)methyl)-2-(4-((((4-(trifluoromethyl)benzyl)oxy)imino)methyl)phenoxy)acetamide]"
30,42,47,,,,,"CCC(=NOCc1ccc(C(F)(F)F)cc1)c1ccc(NCC(=O)NCC2CCOCC2)nc1 [Example 23, N-((tetrahydro-2H-pyran-4-yl)methyl)-2-((5-(1-(((4-(trifluoromethyl)benzyl)oxy)imino)propyl)pyridin-2-yl)amino)acetamide]"
,20,47,,,,,"COc1ccc(CON=C(Cc2ccccc2)c2ccc(OCC(=O)NCC3CCOCC3)c(C)c2)cc1 [Example 40, 2-(4-(1-(((4-methoxybenzyl)oxy)imino)-2-phenylethyl)-2-methylphenoxy)-N-((tetrahydro-2H-pyran-4-yl)methyl)acetamide]"
20,34,57,,,,,"CC(=NOCc1ccc(C(F)(F)F)cc1)c1ccc(NCC(=O)NCC2CCOCC2)cc1 [Example 20, N-((tetrahydro-2H-pyran-4-yl)methyl)-2-((4-(1-(((4-(trifluoromethyl)benzyl)oxy)imino)ethyl)phenyl)amino)acetamide]"
19,55,79,,,,,"O=C(COc1ccc(C(Cc2ccccc2)=NOCc2cccc(C(F)(F)F)c2)cc1)NCC1CCOCC1 [Example 12, 2-(4-(2-phenyl-1-(((3-(trifluoromethyl)benzyl)oxy)imino)ethyl)phenoxy)-N-((tetrahydro-2H-pyran-4-yl)methyl)acetamide]"
10,10,28,,,,,"Cc1ccc(CON=C(Cc2ccccc2)c2ccc(OCC(=O)NCC3CCOCC3)cc2)cc1 [Example 33, 2-(4-(1-(((4-methylbenzyl)oxy)imino)-2-phenylethyl)phenoxy)-N-((tetrahydro-2H-pyran-4-yl)methyl)acetamide]"
